Test results taken from patent publication US9850251B2, “Imidazole derivative used as antiviral agent and use therof in preparation of medicament” (priority 2013, dated 2017).

Key:
[1] = RSV long CPE assay (cytopathic effect assay), CC50 toxicity in vitro; type: cell-based; details: human, Hep2 cells, CCK-8 readout, top concentration 100 μM
Protocol: (§1) Detect EC50 and CC50 values of anti RSV respiratory tract virus compounds through the cytopathic effect assay.
(§2) The cell plate was centrifugated (300 rpm) to make the cells adherent to the wall, placed into a 37° C., 5% CO2 incubator overnight.
(§3) 1) the compound in 100% DMSO underwent a semi logarithmic dilution, then was added to the cell plate with a Echo liquid handler. Ensure that the final concentration of DMSO was 1%;
(§4) 2) Cell-control hole: no compound and viruse were added; virus-control hole: no compound was added.
(§5) 2) add CCK-8 (Dojindo-CK04-20, 6 μL/hole) to 384 well plate with Multidrop® automatic liquid distributor;
(§6) 3) place the plate at a 37° C., 5% CO2 culture incubator for 3˜4 h, read the absorbance value with SPECTRA max 340PC_Molecular device at 450 nm and 630 nm;

[2] = system: RSV respiratory tract virus (A long strain); test: RSV long CPE assay (cytopathic effect assay), EC50; type: cell-based; details: human respiratory syncytial virus, HEp-2, 120 h; Hep2 cells infected with RSV A long strain, 5 days, CCK-8 readout
Protocol: as §1
Virus strain: RSV respiratory tract virus (A long strain)
as §2, §3, §4
dilute RSV viruses to 100 TCID50/30 μL with medium cultured with 4° C. cells, and then add the diluted viruses to a cell plate (30 μL/hole) with Multidrop® automatic liquid distributor, and then placed into a 37° C., 5% CO2 culture incubator for 5 days.
1) after 5 days, observe the pathological change in each hole.
as §5, §6

Row | SMILES | EC50 [2] | CC50 at 5 days [1]
1 | CC(C)OC(=O)N1CC2(C1)C(=O)N(Cc1nc3c(n1CCCC(F)(F)F)C(O)CCC3)c1ccccc12 (stereo not drawn) [Embodiment 109, Isopropyl 1′-((7-hydroxy-1-(4,4,4-trifluorobutyl)-4,5,6,7-tetrahydro-1H-benzo[d]imidazol-2-yl)methyl)-2′-oxospiro[azetidine-3,3′-indoline]-1-carboxylate] | 0.1 to 1 µM | > 100 µM
2 | CCC(=O)N1CC2(C1)C(=O)N(Cc1nc3c(n1CCCC(F)(F)F)CCCC3)c1ccccc12 [Embodiment 94, 1-Propionyl-1′-((1-(4,4,4-trifluorobutyl)-4,5,6,7-tetrahydro-1H-benzo[d]imidazol-2-yl)methyl)spiro[azetidine-3,3′-indoline]-2′-one] | < 0.1 µM | > 100 µM
3 | CCOC(=O)N1CC2(C1)C(=O)N(Cc1nc3c(n1CCCC#N)CCCC3)c1ccccc12 [Embodiment 74, Ethyl 1′-((1-(3-cyanopropyl)-4,5,6,7-tetrahydro-1H-benzo[d]imidazol-2-yl)methyl)-2′-oxospiro[azetidine-3,3′-indoline]-1-carboxylate] | < 0.1 µM | > 100 µM
4 | CC(C)OC(=O)N1CC2(C1)C(=O)N(Cc1nc3c(n1CCCCO)CCCC3)c1ccc(Br)cc12 [Embodiment 78, Isopropyl 5′-bromo-1′-((1-(4-hydroxybutyl)-4,5,6,7-tetrahydro-1H-benzo[d]imidazol-2-yl)methyl)-2′-oxospiro[azetidine-3,3′-indoline]-1-carboxylate] | < 0.1 µM | > 100 µM
5 | CC(C)OC(=O)N1CC2(C1)C(=O)N(Cc1nc3c(n1CCCC(F)(F)F)CCCC3)c1cnccc12 [Embodiment 88, Isopropyl 2′-oxo-1′-((1-(4,4,4-trifluorobutyl)-4,5,6,7-tetrahydro-1H-benzo[d]imidazol-2-yl)methyl)-1′,2′-dihydrospiro[azetidine-3,3′-pyrrolo[2,3-c]pyridine]-1-carboxylate] | < 0.1 µM | > 100 µM
6 | CC(=O)N1CC2(C1)C(=O)N(Cc1nc3c(n1CCCC(F)(F)F)CCCC3)c1ccccc12 [Embodiment 92, 1-Acetyl-1′-((1-(4,4,4-trifluorobutyl)-4,5,6,7-tetrahydro-1H-benzo[d]imidazol-2-yl)methyl)spiro[azetidine-3,3′-indoline]-2′-one] | < 0.1 µM | > 100 µM
7 | CC(C)OC(=O)N1CC2(C1)C(=O)N(Cc1nc3c(n1CCCCO)CCC3)c1ccccc12 [Embodiment 103, Isopropyl 1′-((1-(4-hydroxybutyl)-1,4,5,6-tetrahydrocyclopenta[d]imidazol-2-yl)methyl)-2′-oxospiro[azetidine-3,3′-indoline]-1-carboxylate] | < 0.1 µM | > 100 µM
8 | CCOC(=O)N1CC2(C1)C(=O)N(Cc1nc3c(n1CCCS(C)(=O)=O)CCCC3)c1ccccc12 [Embodiment 76, Ethyl 1′-((1-(3-(methylsulfonyl)propyl)-4,5,6,7-tetrahydro-1H-benzo[d]imidazol-2-yl)methyl)-2′-oxospiro[azetidine-3,3′-indoline]-1-carboxylate] | < 0.1 µM | > 100 µM
9 | CC(C)S(=O)(=O)N1CC2(C1)C(=O)N(Cc1nc3c(n1CCCC(F)(F)F)CCCC3)c1ccccc12 [Embodiment 99, 1-(Isopropylsulfonyl)-1′-((1-(4,4,4-trifluorobutyl)-4,5,6,7-tetrahydro-1H-benzo[d]imidazol-2-yl)methyl)spiro[azetidine-3,3′-indoline]-2′-one] | < 0.1 µM | > 100 µM
10 | CC(C)OC(=O)N1CC2(C1)C(=O)N(Cc1nc3c(n1CCCC(F)F)CCCC3)c1ccccc12 [Embodiment 64, Isopropyl 1′-((1-(4,4-difluorobutyl)-4,5,6,7-tetrahydro-1H-benzo[d]imidazol-2-yl)methyl)-2′-oxospiro[azetidine-3,3′-indoline]-1-carboxylate] | < 0.1 µM | > 100 µM
11 | CCC(F)(F)Cn1c(CN2C(=O)C3(CN(C(=O)OC(C)C)C3)c3ccccc32)nc2c1CCCC2 [Embodiment 67, Isopropyl 1′-((1-(2,2-difluorobutyl)-4,5,6,7-tetrahydro-1H-benzo[d]imidazol-2-yl)methyl)-2′-oxospiro[azetidine-3,3′-indoline]-1-carboxylate] | 0.1 to 1 µM | > 100 µM
12 | CCOC(=O)N1CC2(C1)C(=O)N(Cc1nc3c(n1CCCCF)CCCC3)c1ccccc12 [Embodiment 73] | < 0.1 µM | > 100 µM
13 | CC(C)OC(=O)N1CC2(C1)C(=O)N(Cc1nc3c(n1CCCC(F)(F)F)CCCC3)c1cc(F)ccc12 [Embodiment 82, Isopropyl 6′-fluoro-2′-oxo-1′-((1-(4,4,4-trifluorobutyl)-4,5,6,7-tetrahydro-1H-benzo[d]imidazol-2-yl)methyl)spiro[azetidine-3,3′-indoline]-1-carboxylate] | < 0.1 µM | > 100 µM
14 | CC(C)OC(=O)N1CC2(C1)C(=O)N(Cc1nc3c(n1CCCCO)CCCC3)c1ccccc12 [Embodiment 62, Isopropyl 1′-((1-(4-hydroxybutyl)-4,5,6,7-tetrahydro-1H-benzo[d]imidazol-2-yl)methyl)-2′-oxospiro[azetidine-3,3′-indoline]-1-carboxylate] | < 0.1 µM | > 100 µM
15 | CCOC(=O)N1CC2(C1)C(=O)N(Cc1nc3c(n1CCCC(F)(F)F)CCCC3)c1cc(F)ccc12 [Embodiment 83, Ethyl 6′-fluoro-2′-oxo-1′-((1-(4,4,4-trifluorobutyl)-4,5,6,7-tetrahydro-1H-benzo[d]imidazol-2-yl)methyl)spiro[azetidine-3,3′-indoline]-1-carboxylate] | < 0.1 µM | > 100 µM
16 | CC(C)OC(=O)N1CC2(C1)C(=O)N(Cc1nc3c(n1CC(F)(F)C(C)C)CCCC3)c1ccccc12 [Embodiment 69, Isopropyl 1′-((1-(2,2-difluoro-3-methylbutyl)-4,5,6,7-tetrahydro-1H-benzo[d]imidazol-2-yl)methyl)-2′-oxospiro[azetidine-3,3′-indoline]-1-carboxylate] | < 0.1 µM | > 100 µM

More lines, main results first:

Row | EC50 [2] | SMILES | CC50 at 5 days [1]
17 | < 0.1 µM | O=CN1CC2(C1)C(=O)N(Cc1nc3c(n1CCCC(F)(F)F)CCCC3)c1ccccc12 [Embodiment 90, 2′-Oxo-1′-((1-(4,4,4-trifluorobutyl)-4,5,6,7-tetrahydro-1H-benzo[d]imidazol-2-yl)methyl)spiro[azetidine-3,3′-indoline]-1-carbaldehyde] | > 100 µM
18 | < 0.1 µM | CS(=O)(=O)N1CC2(C1)C(=O)N(Cc1nc3c(n1CCCC(F)(F)F)CCC3)c1ccccc12 [Embodiment 106, 1-(Methylsulfonyl)-1′-((1-(4,4,4-trifluorobutyl)-1,4,5,6-tetrahydrocyclopenta[d]imidazol-2-yl)methyl)spiro[azetidine-3,3′-indoline]-2′-one] | > 100 µM
19 | < 0.1 µM | CS(=O)(=O)N1CC2(C1)C(=O)N(Cc1nc3c(n1CCCC(F)(F)F)CCCC3)c1ccccc12 [Embodiment 97, 1-(Methylsulfonyl)-1′-((1-(4,4,4-trifluorobutyl)-4,5,6,7-tetrahydro-1H-benzo[d]imidazol-2-yl)methyl)spiro[azetidine-3,3′-indoline]-2′-one] | > 100 µM
20 | < 0.1 µM | CCOC(=O)N1CC2(C1)C(=O)N(Cc1nc3c(n1CCCC(F)(F)F)CCC3)c1ccccc12 [Embodiment 104, Ethyl 2′-oxo-1′-((1-(4,4,4-trifluorobutyl)-1,4,5,6-tetrahydrocyclopenta[d]imidazol-2-yl)methyl)spiro[azetidine-3,3′-indoline]-1-carboxylate] | > 100 µM
21 | < 0.1 µM | O=C1N(Cc2nc3c(n2CCCCO)CCCC3)c2ccccc2C12CC2 [Embodiment 63, 1′-((1-(4-Hydroxybutyl)-4,5,6,7-tetrahydro-1H-benzo[d]imidazol-2-yl)methyl)spiro[cyclopropane-1,3′-indoline]-2′-one] | > 100 µM
22 | < 0.1 µM | CC(C)C(=O)N1CC2(C1)C(=O)N(Cc1nc3c(n1CCCC(F)(F)F)CCCC3)c1ccccc12 [Embodiment 95, 1-Isobutyryl-1′-((1-(4,4,4-trifluorobutyl)-4,5,6,7-tetrahydro-1H-benzo[d]imidazol-2-yl)methyl)spiro[azetidine-3,3′-indoline]-2′-one] | > 100 µM
23 | < 0.1 µM | C=CCCn1c(CN2C(=O)C3(CN(C(=O)OC(C)C)C3)c3ccc(Cl)cc32)nc2c1CCCC2 [Embodiment 107, Isopropyl 1′-((1-(but-3-en-1-yl)-4,5,6,7-tetrahydro-1H-benzo[d]imidazol-2-yl)methyl)-6′-chloro-2′-oxospiro[azetidine-3,3′-indoline]-1-carboxylate] | > 100 µM
24 | < 0.1 µM | CC(C)OC(=O)N1CC2(C1)C(=O)N(Cc1nc3c(n1CCCC(F)(F)F)CCC3)c1ccccc12 [Embodiment 102, Isopropyl 2′-oxo-1′-((1-(4,4,4-trifluorobutyl)-1,4,5,6-tetrahydrocyclopenta[d]imidazol-2-yl)methyl)spiro[azetidine-3,3′-indoline]-1-carboxylate] | > 100 µM
